Series [1] concerns the target T1, HCV NS5BΔ21/Gal4-DBD fusion protein (Hepatitis C virus genotype 1b, UniProt Q9WMX2).
T1 construct: The protein was expressed with a 21 amino acid C-terminal deletion to remove transmembrane domain; expressed in transfected cells; host or cells: Huh-7 (transient transfection)
The series is described as follows: 3D-SCREEN assay (NS5B reporter gene assay in Huh-7 cells). Type of series: cell-based, HCV genotype 1b. Here is the method: (§1) Human Hepatoma Huh-7 cell line was maintained in DMEM/HAMF-12 supplemented with 10% SVF, 4 mM glutamine, […] Na pyruvate, 1% penistreptomycine. HCV replicon containing Huh-7 cell lines Huh-9.13 and Luc Neo ET (Reblikon) were maintained in DMEM supplemented with 10% SVF, 2 mM glutamine, and 1×NEAA, 100 U/ml penicillin, and 100 μg/ml streptomycine. Replicon cells were maintained in medium supplemented with 1 mg/ml G418 for replicon Huh-9.13 and 0.5 mg/ml for Luc Neo et replicon unless indicated otherwise. Huh-7 and HCV replicon cell lines were maintained at 37° C. and 5% CO2 in a humidified atmosphere. Cells were dissociated at sub confluence with trypsin EDTA 1×.
cDNA encoding HCV NS5B genotype 1b, was cloned in frame with Gal4-DNA Binding Domain. The protein was expressed with a 21 amino acid C-terminal deletion to remove transmembrane domain. Expression of NS5BΔ21/Gal4 DBD fusion protein was under control of SV40 early promoter. 3D-Sensor peptide was cloned in frame with VP16 activation domain. Expression of 3D-Sensor/VP16 AD fusion protein was under control of CMV promoter. Expression of the firefly luciferase reporter gene was inducible by the [Target protein/conformation sensitive peptide/VP16AD] complex.
It is a single-target, cell based assay. Briefly, expression of a reporter gene depends on the interaction of a short peptide, thereafter named 3D-Sensor, and native conformation of the target protein. Whenever the conformation of the target protein is modified, interaction between 3D-sensor and target protein is disrupted and reporter gene is not expressed anymore. Conformation modifiers are identified by loss of expression of reporter gene. NS5B 3D-Screen platform was generated in Huh-7 cell lines by transient transfection of three expression vectors encoding respectively • (i) HCV NS5BΔ21/Gal4-DBD fusion protein • (ii) the 3D-sensor peptide 14/VP16 fusion protein • (iii) the firefly luciferase reporter gene
Huh-7 cells were dissociated the day before transfection and seeded in T175 flasks at a density of 10^7 cells in 30 ml culture medium. Equimolar ratios of vectors were transfected in cell according to optimized jetPEI transfection protocol (PolyPlus Transfection, Illkirch, France) and 10 μg total DNA/10^6 cells. Transfection was performed for 2 hours at 37° C. and 5% CO2 in a humidified atmosphere. After two hours cells were dissociated and seeded in 96 wells plates at a density of 25,000 cells per well and 90 μl culture medium. 10 μl of compounds to be tested were added 2 hours after seeding. Final concentration of DMSO was 1%. Cells were incubated in the presence of compounds for 24 hours after which expression of firefly luciferase reporter gene was quantified. Briefly, culture medium was removed and cells were lysed by addition of 100 μl of lysis buffer containing 125 mM Tris Phosphate ph 7.8, 10 mM EDTA, 5 mM DTT, 50% glycerol and 5% Triton. Plates were vortexed 10 min at 1300 rpm. Cell lysat was transferred in OpaqueWhite Assay 96 well Flat Bottom plates. 100 μl of luciferin solution 1× were added to each well. Luciferin solution contained 40 mM Tris Phosphate ph 7.8, 0.2 mM EDTA, 67 mM DTT, 2.14 mM MgCl2, 5.4 mM MgSO4, 4.7×10^−4 M luciferin, 5.3×10^−4 M ATP and 2.7×10^−4 M Acetyl co enzyme A. Luminescence was immediately measured with Berthold Microlumat Plus LB 96V luminometer with an integration of 0.5 sec. Inhibition was calculated using the formula: % inhibition=(1−(read/average max))*100. Average max=signal in absence of compound
On the technique in general: In a reporter assay the amount or activity of a reporter protein is the signal.

The test system of series [2] is HCV replicon Luc Neo ET in Huh-7 cells. The series is described as follows: Replicon assay (Luc Neo ET replicon). The series is classed as cell-based. The note with it: Hepatitis C virus, 72 hours with compound, firefly luciferase reporter, read-out: EC50—Replicon LucneoET. Here is the method: as §1
Replicon Luc Neo ET is a bicistronic expression constructs (Lohmann et al, 1999, Science 285, 110-113). In brief, the structural genes of the HCV genome were replaced by heterologous sequences; the gene encoding the neomycin phosphotransferase (NPT) and the internal ribosome entry site (IRES) of the encephalomyocarditis virus (EMCV). The bicistronic construct is therefore composed of the following elements: HCV-IRES nucleotides 1-389, the NPT gene, the EMCV-IRES directing translation of downstream HCV sequences from NS2 or NS3 up to the authentic 3′ end of the genome. HCV Polyprotein harbours the cell culture adaptive mutations E1202G, T1280I, K1846T. G418-resistance is only possible with cells containing high amounts of replicon.
Cells were dissociated the day before addition of compounds and seeded in 96 well-plates at a final concentration of 77 777.77 cells·ml^−1·well^−2 in 90 μl final volume of culture medium per well and were maintained at 37° C. and 5% CO2 in a humidified atmosphere for 24 hours. 10 μl of compounds to be tested were added 24 hours after seeding. Final concentration of DMSO was 1%. Cells were incubated in the presence of compounds for 72 hours after which expression of firefly luciferase reporter gene was quantified. Briefly, culture medium was removed and cells were lysed by addition of 100 μl of lysis buffer containing 125 mM Tris Phosphate ph 7.8, 10 mM EDTA, 5 mM DTT, 50% glycerol and 5% Triton. Plates were vortexed 10 min at 1300 rpm. Cell lysat was transferred in OpaqueWhite Assay 96 well Flat Bottom plates. 100 μl of luciferin solution 1× were added to each well. Luciferin solution contained 40 mM Tris Phosphate ph 7.8, 0.2 mM EDTA, 67 mM DTT, 2.14 mM MgCl2, 5.4 mM MgSO4, 4.7×10^−4 M luciferin, 5.3×10^−4 M ATP and 2.7×10^−4 M Acetyl co enzyme A. Luminescence was immediately measured with Berthold Microlumat Plus LB 96V luminometer with an integration of 0.5 sec Inhibition was calculated using the formula:
% inhibition=1−[(RLUsample−RLUbackground)/(RLUsignal−RLUbackground)]
For orientation: Replicon systems follow genome replication, usually without infectious particles.

Series [3] has as its target T2, purified HCV NS5B with a deletion of the 21 C-terminal amino acids (Hepatitis C virus genotype 1b, UniProt Q9WMX2).
T2 construct: purified HCV NS5B with a deletion of the 21 C-terminal amino acids
The series is described as follows: HCV NS5B RdRp enzyme assay. The note with it: read-out: inhibition (RdRp enzyme assay). The series is classed as biochemical. Here is the method: The assay was performed in a total volume of 20 μl containing 20 mM Tris pH 7.5, 1 mM DTT, 17 U RNasin, 50 mM NaCl, 10% DMSO, 5 mM MgCl2, 0.5 mM each of the 3 NTPs (ATP, CTP, GTP), 86 nM RNA template (341 nt from the 3′ end of HCV minus strand RNA), 50 nM of purified HCV NS5B with a deletion of the 21 C-terminal amino acids and 2 μCi [^3H]UTP (46 Ci·mmol^−1). The reaction mixture was incubated for 2 h at 25-30° C. and the radio labeled products were precipitated by the addition of 10% TCA. The radioactivity incorporated was quantified by counting in a Wallac scintillation counter. Increasing concentrations of tested compounds were added to the complete RdRp reaction mixture. After a two hour incubation period at 25-30° C., the amount of labeled product was determined as above. Two types of control reactions were done: a negative control corresponding to the complete mixture without enzyme and a positive control with enzyme but without compounds. In each experiment, test and control samples are in duplicate.
The level of activity with each compound concentration was expressed with the formulae: […]
The IC50 value was calculated as the compound concentration reducing polymerase activity by 50%.

Bounds are passed on as bounds.

As to `Cc1nnc(N2C(=O)C(O)=C(C(=O)c3ccc(C(C)C)cc3)C2c2ccc(OC(F)(F)F)cc2)s1` (centres unmarked) [Example 127, 3-hydroxy-4-(4-isopropyl-benzoyl)-1-(5-methyl-[1,3,4]thiadiazol-2-yl)-5-(4-trifluoromethoxy-phenyl)-1,5-dihydro-pyrrol-2-one], the melting point (usually the temperature, or range, at which the solid turns liquid) was determined as 260 °C. In series [1], the EC50 – broadly, the concentration at which the effect is half-maximal – is less than 1 µM. In addition, the EC50 in series [2] was less than 1 µM.

In turn, `Cc1cnc(N2C(=O)C(O)=C(C(=O)c3ccc(C(C)C)cc3)C2c2ccc(OC(F)(F)F)cc2)s1` (centres unmarked) [Example 130, 3-hydroxy-4-(4-isopropyl-benzoyl)-1-(5-methyl-thiazol-2-yl)-5-(4-trifluoromethoxy-phenyl)-1,5-dihydro-pyrrol-2-one] displayed a melting point of 243 to 244 °C. Besides, the half-maximal effective concentration (EC50) in series [1] was less than 10 µM. In addition, the concentration for a half-maximal effect (EC50) in series [2] was less than 10 µM.

In turn, `Cc1nnc(N2C(=O)C(O)=C(C(=O)c3ccc(C(C)C)cc3)C2c2ccc(C(F)(F)F)cc2)s1` (centres unmarked) [Example 128, 3-hydroxy-4-(4-isopropyl-benzoyl)-1-(5-methyl-[1,3,4]thiadiazol-2-yl)-5-(4-trifluoromethyl-phenyl)-1,5-dihydro-pyrrol-2-one] yielded a melting point of 257 °C. In series [1], this compound displayed an EC50 of less than 1 µM. Moreover, the EC50 in series [2] was less than 1 µM.

In turn, `CC(C)c1ccc(C(=O)C2=C(O)C(=O)N(c3ncc(S(=O)(=O)c4ccc([N+](=O)[O-])cc4)s3)C2c2ccc(OC(F)(F)F)cc2)cc1` (centres unmarked) [Example 125, 3-hydroxy-4-(4-isopropyl-benzoyl)-1-[5-(4-nitro-benzenesulfonyl)-thiazol-2-yl]-5-(4-trifluoromethoxy-phenyl)-1,5-dihydro-pyrrol-2-one] came in with a melting point of 276 to 278 °C. Moreover, the EC50 in series [1] was less than 10 µM. Moreover, in series [2], the concentration for a half-maximal effect (EC50) is less than 10 µM.

Turning to `Cc1ccc(C(=O)C2=C(O)C(=O)N(c3ncc(S(=O)(=O)c4ccc([N+](=O)[O-])cc4)s3)C2c2ccc(C(C)(C)C)cc2)cc1` (centres unmarked) [Example 28], the EC50 worked out at 2 µM in series [1] and 4 µM in series [2]. In addition, in series [3], the inhibition (in general, the change of the read-out against control, counted positive when it falls) at 10 µM was 85%.

As to `CCc1ccc(C2C(C(=O)c3ccco3)=C(O)C(=O)N2c2ncc(S(=O)(=O)c3ccc([N+](=O)[O-])cc3)s2)cc1` (centres unmarked) [Example 104, 5-(4-ethyl-phenyl)-4-(furan-2-carbonyl)-3-hydroxy-1-[5-(4-nitro-benzenesulfonyl)-thiazol-2-yl]-1,5-dihydro-pyrrol-2-one], the EC50 in series [1] and in series [2] was less than 10 µM each time.
